Results published in ChEMBL document CHEMBL1649107, “Sulfonate-containing thiiranes as selective gelatinase inhibitors” (ACS Med Chem Lett, 2011).
Converted amounts (≈) assume the structure as drawn. The source made the active and inactive calls. The calls are words filed in the database; no cut-off is given here.

What was measured:
[1] = molecular target: T1, Matrilysin (Homo sapiens) (UniProt P09237); test: Inhibition of human recombinant MMP7 catalytic domain assessed as dissociation rate constant by substrate hydrolysis based fluorescence spectrophotometry
T1 sequence (whole entry): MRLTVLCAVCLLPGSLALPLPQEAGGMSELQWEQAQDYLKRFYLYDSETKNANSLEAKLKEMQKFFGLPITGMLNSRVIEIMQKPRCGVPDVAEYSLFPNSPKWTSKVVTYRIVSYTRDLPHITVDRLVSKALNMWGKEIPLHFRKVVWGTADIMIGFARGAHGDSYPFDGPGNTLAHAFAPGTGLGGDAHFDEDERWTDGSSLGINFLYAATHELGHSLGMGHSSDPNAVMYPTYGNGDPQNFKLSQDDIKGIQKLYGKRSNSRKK

[2] = molecular target: T2, Matrix metalloproteinase-9 (Homo sapiens, UniProt P14780); test: Inhibition of human recombinant MMP9 catalytic domain assessed as dissociation rate constant by substrate hydrolysis based fluorescence spectrophotometry
T2 sequence (P14780 whole entry, the tested form may be a part): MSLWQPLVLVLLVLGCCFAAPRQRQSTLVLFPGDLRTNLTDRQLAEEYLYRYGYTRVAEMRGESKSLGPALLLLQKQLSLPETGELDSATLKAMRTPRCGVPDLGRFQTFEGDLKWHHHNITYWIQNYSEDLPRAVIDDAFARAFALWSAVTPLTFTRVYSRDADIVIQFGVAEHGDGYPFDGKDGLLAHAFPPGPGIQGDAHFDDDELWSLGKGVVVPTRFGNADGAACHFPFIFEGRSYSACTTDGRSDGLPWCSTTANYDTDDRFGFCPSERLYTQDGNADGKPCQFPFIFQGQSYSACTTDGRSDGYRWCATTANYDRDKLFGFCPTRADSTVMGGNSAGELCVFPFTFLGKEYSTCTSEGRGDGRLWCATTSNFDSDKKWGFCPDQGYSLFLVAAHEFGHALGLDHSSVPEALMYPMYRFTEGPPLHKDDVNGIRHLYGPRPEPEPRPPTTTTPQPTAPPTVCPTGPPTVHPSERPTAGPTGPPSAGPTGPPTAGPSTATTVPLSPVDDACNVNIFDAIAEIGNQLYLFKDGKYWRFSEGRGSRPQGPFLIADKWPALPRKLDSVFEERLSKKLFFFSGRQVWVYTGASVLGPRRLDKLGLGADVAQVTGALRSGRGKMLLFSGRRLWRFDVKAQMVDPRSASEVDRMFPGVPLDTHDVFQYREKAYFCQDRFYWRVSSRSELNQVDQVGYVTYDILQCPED

[3] = molecular target: T3, Matrix metalloproteinase-14 (Homo sapiens, UniProt P50281); test: Inhibition of human recombinant MMP14 catalytic domain assessed as dissociation rate constant by substrate hydrolysis based fluorescence spectrophotometry
[4] = molecular target: T3, Matrix metalloproteinase-14; test: Inhibition of human recombinant MMP14 catalytic domain by substrate hydrolysis based fluorescence spectrophotometry
Stromelysin-1 [5] = molecular target: T4, Stromelysin-1 (Homo sapiens, UniProt P08254); test: Inhibition of human recombinant MMP3 catalytic domain at 200 uM by substrate hydrolysis based fluorescence spectrophotometry
Target sequence in this assay (P08254 100-477 limits assumed): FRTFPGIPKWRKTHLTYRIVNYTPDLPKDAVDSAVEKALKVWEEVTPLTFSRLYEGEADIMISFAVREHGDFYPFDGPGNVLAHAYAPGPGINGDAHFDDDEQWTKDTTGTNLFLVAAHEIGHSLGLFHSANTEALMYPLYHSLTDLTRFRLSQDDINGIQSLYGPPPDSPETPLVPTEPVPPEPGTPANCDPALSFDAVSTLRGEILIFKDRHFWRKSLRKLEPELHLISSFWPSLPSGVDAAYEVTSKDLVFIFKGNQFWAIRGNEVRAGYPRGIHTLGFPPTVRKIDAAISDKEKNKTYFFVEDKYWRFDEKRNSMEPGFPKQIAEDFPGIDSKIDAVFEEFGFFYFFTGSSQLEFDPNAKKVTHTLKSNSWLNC

[6] = molecular target: T5, Interstitial collagenase (Homo sapiens) (UniProt P03956); test: Inhibition of human recombinant MMP1 catalytic domain at 200 uM by substrate hydrolysis based fluorescence spectrophotometry
T5 sequence (whole entry): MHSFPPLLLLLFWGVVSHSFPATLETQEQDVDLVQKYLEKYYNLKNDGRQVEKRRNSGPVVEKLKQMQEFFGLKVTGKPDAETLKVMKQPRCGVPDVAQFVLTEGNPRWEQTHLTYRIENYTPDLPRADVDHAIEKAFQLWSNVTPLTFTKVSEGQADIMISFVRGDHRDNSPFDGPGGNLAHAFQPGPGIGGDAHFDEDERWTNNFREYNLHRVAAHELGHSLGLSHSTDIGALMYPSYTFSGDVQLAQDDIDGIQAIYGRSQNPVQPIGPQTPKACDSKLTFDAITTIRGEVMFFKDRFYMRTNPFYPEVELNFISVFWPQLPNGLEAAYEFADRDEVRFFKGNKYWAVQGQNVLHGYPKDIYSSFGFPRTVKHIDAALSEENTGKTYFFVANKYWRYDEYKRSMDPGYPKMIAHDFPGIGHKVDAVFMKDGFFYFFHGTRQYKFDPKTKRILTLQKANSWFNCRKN

[7] = Half life in rat liver microsomes at 200 uM by HPLC; format: ADME, Microsome
[8] = Intrinsic clearance in rat liver microsomes at 200 uM by HPLC; format: ADME, Microsome
[9] = molecular target: 72 kDa type IV collagenase (Homo sapiens, UniProt P08253)
Chain of 72 kDa type IV collagenase (P08253 whole entry): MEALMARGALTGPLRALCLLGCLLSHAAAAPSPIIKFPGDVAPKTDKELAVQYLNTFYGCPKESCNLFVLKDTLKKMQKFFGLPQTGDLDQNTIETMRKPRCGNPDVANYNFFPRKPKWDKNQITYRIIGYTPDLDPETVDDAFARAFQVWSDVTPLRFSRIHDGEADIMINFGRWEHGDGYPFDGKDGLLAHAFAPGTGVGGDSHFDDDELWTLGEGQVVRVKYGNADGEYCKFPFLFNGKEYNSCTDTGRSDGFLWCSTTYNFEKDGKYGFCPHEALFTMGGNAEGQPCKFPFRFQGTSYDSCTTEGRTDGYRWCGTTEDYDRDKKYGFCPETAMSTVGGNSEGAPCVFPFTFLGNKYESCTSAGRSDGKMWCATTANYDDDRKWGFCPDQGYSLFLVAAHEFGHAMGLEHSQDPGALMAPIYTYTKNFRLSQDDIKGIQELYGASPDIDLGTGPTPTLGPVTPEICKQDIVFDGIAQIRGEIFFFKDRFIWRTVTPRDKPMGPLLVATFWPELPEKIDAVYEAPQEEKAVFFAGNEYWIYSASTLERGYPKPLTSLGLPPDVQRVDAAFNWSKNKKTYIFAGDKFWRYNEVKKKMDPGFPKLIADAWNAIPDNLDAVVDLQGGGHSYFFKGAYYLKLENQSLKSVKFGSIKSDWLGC
Description: Inhibition of MMP2 by substrate hydrolysis based fluorescence spectrophotometry

Matrilysin = molecular target: T6, Matrilysin (Homo sapiens, UniProt P09237)
T6 sequence (P09237 whole entry): T1 sequence (whole entry)
Description: Inhibition of human recombinant MMP7 catalytic domain by substrate hydrolysis based fluorescence spectrophotometry

[10] = molecular target: T2, Matrix metalloproteinase-9
Description: Inhibition of human recombinant MMP9 catalytic domain by substrate hydrolysis based fluorescence spectrophotometry

physchem = settings: aqueous
Description: Aqueous solubility of the compound

Interstitial collagenase = molecular target: T7, Interstitial collagenase (Homo sapiens, UniProt P03956)
T7 sequence (P03956 whole entry): T5 sequence (whole entry)
Description: Inhibition of human recombinant MMP1 catalytic domain by substrate hydrolysis based fluorescence spectrophotometry

Stromelysin-1 [11] = molecular target: T4, Stromelysin-1; test: Inhibition of human recombinant MMP3 catalytic domain at 20 uM by substrate hydrolysis based fluorescence spectrophotometry
Target sequence in this assay (P08254 100-477 limits assumed): as the sequence (P08254 100-477 limits assumed) above

[12] = molecular target: T5, Interstitial collagenase (Homo sapiens); test: Inhibition of human recombinant MMP1 catalytic domain at 30 uM by substrate hydrolysis based fluorescence spectrophotometry
[13] = molecular target: T1, Matrilysin (Homo sapiens); test: Inhibition of human recombinant MMP7 catalytic domain at 30 uM by substrate hydrolysis based fluorescence spectrophotometry
[14] = Half life in rat liver microsomes at 100 uM by HPLC; format: ADME, Microsome
[15] = Intrinsic clearance in rat liver microsomes at 100 uM by HPLC; format: ADME, Microsome
[16] = molecular target: T5, Interstitial collagenase (Homo sapiens); test: Inhibition of human recombinant MMP1 catalytic domain at 40 uM by substrate hydrolysis based fluorescence spectrophotometry
[17] = molecular target: T1, Matrilysin (Homo sapiens); test: Inhibition of human recombinant MMP7 catalytic domain at 40 uM by substrate hydrolysis based fluorescence spectrophotometry
[18] = molecular target: T5, Interstitial collagenase (Homo sapiens); test: Inhibition of human recombinant MMP1 catalytic domain at 20 uM by substrate hydrolysis based fluorescence spectrophotometry
[19] = molecular target: T1, Matrilysin (Homo sapiens); test: Inhibition of human recombinant MMP7 catalytic domain at 20 uM by substrate hydrolysis based fluorescence spectrophotometry
Stromelysin-1 [20] = molecular target: T4, Stromelysin-1
Target sequence in this assay (P08254 whole entry, the tested form may be a part): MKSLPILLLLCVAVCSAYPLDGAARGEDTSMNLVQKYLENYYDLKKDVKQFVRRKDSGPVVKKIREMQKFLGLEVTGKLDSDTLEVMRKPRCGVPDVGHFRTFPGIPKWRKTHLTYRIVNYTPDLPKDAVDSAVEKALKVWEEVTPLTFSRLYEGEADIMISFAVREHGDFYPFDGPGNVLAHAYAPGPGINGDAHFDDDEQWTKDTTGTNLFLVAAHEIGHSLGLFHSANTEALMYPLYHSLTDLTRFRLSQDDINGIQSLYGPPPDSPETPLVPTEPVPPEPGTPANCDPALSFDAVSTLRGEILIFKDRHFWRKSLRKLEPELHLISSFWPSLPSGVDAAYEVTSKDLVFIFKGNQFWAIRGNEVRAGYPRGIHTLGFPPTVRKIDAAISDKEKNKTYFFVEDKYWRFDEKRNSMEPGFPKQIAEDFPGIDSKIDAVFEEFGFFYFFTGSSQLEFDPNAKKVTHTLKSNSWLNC
Description: Inhibition of human recombinant MMP3 catalytic domain by substrate hydrolysis based fluorescence spectrophotometry

Compound	Activity [1]	Activity [2]	Activity [3]	Ki [4]	inhibition (Stromelysin-1 [5])	inhibition [6]	half-life at 200 µM [7]	CLint scaled at 200 µM [8]	Ki [9]	Ki (Matrilysin)	Ki [10]	solubility (physchem)	inhibition (Stromelysin-1 [11])	half-life at 100 µM [14]	CLint scaled at 100 µM [15]	also measured
CCCS(=O)(=O)Oc1ccc(S(=O)(=O)CC2CS2)cc1 (stereo not given)	0.8 ×10⁻³ /s	0.9 ×10⁻³ /s	1.5 ×10⁻³ /s	32000 nM	58%	30%	29.8 min	47.2 mL/min/kg	280 nM	35 µM	6.2 µM	96 µg/mL (≈ 285 µM)	–	–	–	–
CS(=O)(=O)Oc1ccc(S(=O)(=O)CC2CS2)cc1 (stereo not given)	0.5 ×10⁻³ /s	0.25 ×10⁻³ /s	0.2 ×10⁻³ /s	480 nM	29%	–	45.3 min	31 mL/min/kg	390 nM	11 µM	3.9 µM	167 µg/mL (≈ 542 µM)	–	–	–	Ki (Interstitial collagenase): 41 µM
CC(C)CS(=O)(=O)Oc1ccc(Oc2ccc(S(=O)(=O)CC3CS3)cc2)cc1 (stereo not given)	–	2 ×10⁻³ /s	2 ×10⁻³ /s	790 nM	–	–	–	–	61 nM	–	0.38 µM	1.1 µg/mL (≈ 2.49 µM)	5%	16.2 min	86.5 mL/min/kg	inhibition [12]: inactive; inhibition [13]: inactive
O=S(=O)(CC1CS1)c1ccc(Oc2ccccc2)cc1 (stereo not given)	–	7.1 ×10⁻³ /s	–	110 nM	–	–	–	–	–	–	–	–	–	12 min	117 mL/min/kg	–
CCS(=O)(=O)Oc1ccc(Oc2ccc(S(=O)(=O)CC3CS3)cc2)cc1 (stereo not given)	–	1.5 ×10⁻³ /s	9 ×10⁻³ /s	360 nM	–	–	–	–	70 nM	–	0.33 µM	4.1 µg/mL (≈ 9.89 µM)	38%	35.9 min	39 mL/min/kg	inhibition [16]: inactive; inhibition [17]: 8%
CCS(=O)(=O)Oc1ccc(S(=O)(=O)CC2CS2)cc1 (stereo not given)	0.6 ×10⁻³ /s	1.8 ×10⁻³ /s	1.6 ×10⁻³ /s	11000 nM	62%	7%	31.8 min	44.2 mL/min/kg	90 nM	26 µM	12 µM	114 µg/mL (≈ 354 µM)	–	–	–	–
CCCS(=O)(=O)Oc1ccc(Oc2ccc(S(=O)(=O)CC3CS3)cc2)cc1 (stereo not given)	–	1.6 ×10⁻³ /s	1.8 ×10⁻³ /s	240 nM	–	–	–	–	34 nM	–	0.52 µM	4 µg/mL (≈ 9.33 µM)	22%	12.6 min	111 mL/min/kg	inhibition [18]: inactive; inhibition [19]: 5%
CS(=O)(=O)Oc1ccc(Oc2ccc(S(=O)(=O)CC3CS3)cc2)cc1 (stereo not given)	–	0.1 ×10⁻³ /s	–	–	–	–	–	–	–	–	–	3.5 µg/mL (≈ 8.74 µM)	–	24.8 min	56.5 mL/min/kg	Ki (Stromelysin-1 [20]): 600 nM
CC(C)CS(=O)(=O)Oc1ccc(S(=O)(=O)CC2CS2)cc1 (stereo not given)	1.4 ×10⁻³ /s	1.9 ×10⁻³ /s	1.7 ×10⁻³ /s	20000 nM	25%	inactive	36.1 min	38.8 mL/min/kg	240 nM	120 µM	3.5 µM	230 µg/mL (≈ 656 µM)	–	–	–	–
